Data set [1] concerns MCF7 cells. Kind of data set: LDH release cytotoxicity assay, MCF7. In kind it is cell-based. The settings on record: Homo sapiens, 48 h, mean ± SD, read-out: In vitro cytotoxicity IC50 µM ± SD, MCF7. The procedure:
(§1) HepG2 (Human liver carcinoma), HCT116 (human colorectal carcinoma), MCF7 (human breast adenocarcinoma), and the normal human skin fibroblast (BJ-1) cell lines were purchased from the american type culture collection (Rockville, MD, USA) and maintained in RPMI-1640 medium which was supplemented with 10% heat-inactivated FBS, 100U/ml penicillin and 100U/ml streptomycin. The cells were grown at 37 °C in a humidified atmosphere of 5% CO2. All experiments were conducted thrice in triplicate (n = 3). All the values were represented as means ± SD. Significant differences between the means of parameters as well as IC50s were determined by probit analysis using SPSS software program (SPSS Inc., Chicago, IL).
(§2) To determine the effect of each synthesized compound on membrane permeability in HepG2, MCF-7 and HCT116 cancer cell lines as well as BJ-1 normal cell line, a lactate dehydrogenase (LDH) release assay was used[29]–[33]. The cells were seeded in 24-well culture plates at a density of 1 × 10^4 cells/well in 500 µL volume and allowed to grow for 18 h before treatment. After treatment with a series of different concentrations of each compound or DOX (positive control), the plates were incubated for 48 h. Then, the supernatant (40 µL) was transferred to a new 96 well to determine LDH release and 6% triton X-100 (40 µL) was added to the original plate for determination of total LDH. An aliquot of 0.1 M potassium phosphate buffer (100 µL, pH 7.5) containing 4.6 mM pyruvic acid was mixed to the supernatant using repeated pipetting. Then, 0.1 M potassium phosphate buffer (100 µL, pH 7.5) containing 0.4 mg/mL reduced β-NADH was added to the wells. The kinetic changes were read for 1 min using ELISA microplate reader in absorbance at wavelength 340 nm. This procedure was repeated with 40 µL of the total cell lysate to determine total LDH. The percentage of LDH release was determined by dividing the LDH released into the media by the total LDH following cell lysis in the same well. The cell Passage numbers for MCF 7 = P13, Hep G2 = P15, HCT 116 = P 9.
(§3) All experiments were conducted in triplicate (n = 3). All the values were represented as mean ± SD. Significant differences between the means of parameters as well as IC50s were determined by probit analysis using SPSS software program (SPSS Inc., Chicago, IL).

In data set [2] the test system is HepG2 cells. Kind of data set: LDH release cytotoxicity assay, HepG2. In kind it is cell-based. The settings on record: Homo sapiens, 48 h, mean ± SD, read-out: In vitro cytotoxicity IC50 µM ± SD, HepG2. The procedure:
as §1, §2, §3
A general note: LDH in the medium is a marker of cell lysis.

Data set [3] concerns HCT116 cells. Kind of data set: LDH release cytotoxicity assay, HCT116. In kind it is cell-based. The settings on record: Homo sapiens, HCT-116, 48 h, mean ± SD, read-out: In vitro cytotoxicity IC50 µM ± SD, HCT116. The procedure:
as §1, §2, §3

The subject of data set [4] is beta-tubulin. Kind of data set: Inhibition of tubulin polymerization in MCF-7 cells (beta-tubulin SimpleStep ELISA). In kind it is cell-based, human. To be noted: MCF7 cells, concentration not given. The source says: Beta-tubulin in vitro simple step ELISA® (Enzyme-Linked Immunosorbent Assay) kit is designed for quantitative measurement of beta-tubulin protein in human cell and tissue homogenate extract samples.
The SimpleStep ELISA® employs an affinity tag labeled capture antibody and a reporter conjugated detector antibody which immunocapture the sample analyte in solution. This entire complex (capture antibody/analyte/detector antibody) is in turn immobilized via immunoaffinity of an anti-tag antibody coating the well. To perform the assay, samples or standards are added to the wells, followed by the antibody mix. After incubation, the wells are washed to remove unbound material. TMB development solution is added and during incubation is catalyzed by horseradish peroxidase (HRP), generating blue coloration. This reaction is then stopped by addition of stop solution completing any color change from blue to yellow. Signal is generated proportionally to the amount of bound analyte and the intensity is measured at 450 nm. Optionally, instead of the endpoint reading, development of TMB can be recorded kinetically at 600 nm. The concentration of beta-tubulin protein in the samples is determined by comparing the optical density (OD) of the samples to the standard curve. Each experiment was repeated two times (Table 2).
On the technique in general: ELISA stands for enzyme-linked immunosorbent assay.

The subject of data set [5] is BJ1 normal cells. Kind of data set: LDH release cytotoxicity assay, normal skin fibroblasts BJ1. In kind it is cell-based, human. The settings on record: non-tumor BJ1 fibroblasts. The procedure: as §1, §2, §3
Data set [6] deals with Topo II. Kind of data set: Inhibition of topoisomerase II in MCF-7 cells (TOP2B sandwich ELISA). In kind it is cell-based, human. To be noted: MCF7 cells, concentration not given. As to the method:
Mouse TOP2B/Topoisomerase II Beta ELISAKit (Sandwich ELISA) is designed for the quantitative measurement of Topo II enzyme.
This assay is based on the sandwich ELISA principle. Each well of the supplied microtiter plate has been pre-coated with a target specific capture antibody. Standards or samples are added to the wells, and the target antigen binds to the capture antibody. Unbound standard or sample is washed away. A biotin-conjugated detection antibody is then added which binds to the captured antigen. Unbound detection antibody is washed away. An avidin-horseradish peroxidase (HRP) conjugate is then added which binds to the biotin. Unbound avidin-HRP conjugate is washed away. A TMB substrate is then added which reacts with the HRP enzyme resulting in color development. A sulfuric acid stop solution is added to terminate color development reaction and then the optical density (OD) of the well is measured at a wavelength of 450 nm ± 2 nm. An OD standard curve is generated using known antigen concentrations; the OD of an unknown sample can then be compared to the standard curve to determine its antigen concentration. Each experiment was repeated two times (Table 3).

In the case of `Cc1cc(-c2ccco2)c(C#N)c(N=P(c2ccccc2)(c2ccccc2)c2ccccc2)n1` [Compound 41, 4-(Furan-2-yl)-6-methyl-2-((triphenyl-λ^5-phosphaneylidene)amino)nicotinonitrile], the values for the IC50 in data set [1], in data set [2] and in data set [3] were 2.4 ± 0.1 µM, 27.3 ± 2.3 µM and 38.2 ± 2.8 µM, respectively. The “tubulin polymerization % inhibition” value in data set [4] is 61.2%. Also, the “Cytotoxicity / selectivity toward BJ1 normal cells (in words)” value in data set [5] is on record as “good selectivity”.

Take `COc1ccc(-c2cc(-c3cc(OC)cc(OC)c3)c(C#N)c(N=P(c3ccccc3)(c3ccccc3)c3ccccc3)n2)cc1` [Compound 38, 4-(3,5-Dimethoxyphenyl)-6-(4-methoxyphenyl)-2-((triphenyl-λ^5-phosphaneylidene)amino)-nicotinonitrile]: the IC50 (as a rule, the concentration that inhibits the measured activity by half) was 2.5 ± 0.1 µM in data set [1], 12.2 ± 1.1 µM in data set [2] and 31.5 ± 3.2 µM in data set [3]. In addition, the “tubulin polymerization % inhibition” value in data set [4] amounted to 71.7%. Moreover, in data set [5], the “Cytotoxicity / selectivity toward BJ1 normal cells (in words)” value was “good selectivity”.

For `COc1ccc(-c2cc(-c3ccc(OC)c(OC)c3)nc(N=P(c3ccccc3)(c3ccccc3)c3ccccc3)c2C#N)cc1` [Compound 39, 6-(3,4-Dimethoxyphenyl)-4-(4-methoxyphenyl)-2-((triphenyl-λ^5-phosphaneylidene)amino)-nicotinonitrile], the IC50 in data set [1] came out at 3 ± 0.1 µM; in data set [2] it was 12.6 ± 1.1 µM; in data set [3], 32.5 ± 3.2 µM. For the same molecule, in data set [5], the “Cytotoxicity / selectivity toward BJ1 normal cells (in words)” value is on record as “good selectivity”.

In the case of `COc1cc(OC)cc(-c2cc(-c3ccc(OC)c(OC)c3)nc(N=P(c3ccccc3)(c3ccccc3)c3ccccc3)c2C#N)c1` [Compound 37, 6-(3,4-Dimethoxyphenyl)-4-(3,5-dimethoxyphenyl)-2-((triphenyl-λ^5-phosphaneylidene)amino)-nicotinonitrile], the “Topo II % inhibition” value in data set [6] is recorded as 82.4%. In addition, the IC50 is 2.6 ± 0.1 µM in data set [1], 29.3 ± 2.5 µM in data set [2] and 36 ± 3.3 µM in data set [3]. For the same molecule, in data set [4], the “tubulin polymerization % inhibition” value is given as 74.3%.

The values are drawn from publication PMC13303826, “Nicotinonitrile based dual inhibitors of tubulin and topoisomerase II exhibit potent anticancer activity” (Scientific Reports, 2026).
